US20090215752A1, “Compounds, preparation and therapeutic use thereof” (priority 2005, published 2009)

How the values were obtained:
[1] = tested on: σ (non-selective) receptors; test: Sigma receptors binding, non-selective ([3H]DTG); details: [3H]DTG 8 nM, rat cerebral cortex
Experimental: The sigma receptors were isolated from rat cerebral cortex according to the method described in Shirayama et al., 1993, p-Chlorophenylalanine-reversible reduction of s binding sites by chronic imipramine treatment in rat brain, Eur. J. Pharmacol., 237: 117-126.
(§1) Sigma 1 receptor binding was determined by a radioligand method using tritium-labelled DTG (8 nM) as substrate (Shirayama et al., 1993). Ligand radioactivity was determined by liquid scintillation counting. For sigma binding evaluation, ligand incubations were carried out for one hundred twenty minutes at 22° C. The experiments were conducted in duplicate.
The specific ligand binding to the sigma receptors was defined as the difference between the total binding and the non specific binding determined in presence of an excess of unlabelled ligand. […]

[2] = molecular target: T1, sigma 2 receptors (Rattus norvegicus, UniProt Q5U3Y7); test: Sigma 2 receptor binding ([3H]DTG + (+)pentazocine); details: [3H]DTG 5 nM + 300 nM (+)pentazocine, rat cerebral cortex, read-out: σ2 percentage inhibition at 10 μM
T1 construct: The sigma 2 receptors were isolated from rat cerebral cortex; from tissue; host or cells: rat cerebral cortex
T1 sequence (Q5U3Y7 1-176): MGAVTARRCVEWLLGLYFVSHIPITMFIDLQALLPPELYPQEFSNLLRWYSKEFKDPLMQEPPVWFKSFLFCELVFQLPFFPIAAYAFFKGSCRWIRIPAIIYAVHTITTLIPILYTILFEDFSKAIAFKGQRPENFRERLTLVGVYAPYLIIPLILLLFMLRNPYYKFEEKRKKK
Experimental: The sigma 1 receptors were isolated from guinea pig cerebral cortex according to the method described in Bowen et al., 1993.
as §1, with “(+)pentazocine (2” for “DTG (8”, “(Bowen et al., 1993). Sigma 2 receptor binding was determined by a radioligand method using tritium-labelled DTG (+300 nM (+)pentazocine) (5 nM) as substrate (Bowen” for “(Shirayama”, “sigma 1 binding evaluation, ligand incubations were carried out for one hundred fifty minutes at 22° C. For sigma 2” for “sigma”
(§2) The specific ligand binding to the sigma receptors was defined as the difference between the total binding and the non specific binding determined in presence of an excess of unlabelled ligand. The results obtained are presented in Table 4 hereinbelow and are expressed as percent of control specific binding and as a percent inhibition of control specific binding obtained in presence of 10 μM of substance.

[3] = molecular target: T2, PDE5 (Bos taurus, UniProt Q28156); test: Selectivity: inhibition of PDE5 (radioenzymatic assay); type: biochemical, bovine; details: Table 2
T2 construct: PDE3, PDE4 and PDE5 from vascular smooth muscle; from tissue; host or cells: bovine aortic media (vascular smooth muscle), DEAE-Sephacel fraction
Experimental: 2.1.1. Isolation of Phosphodiesterases from Smooth Muscle A 3 g segment of bovine aortic media cut into pieces with scissors was homogenized with an ultra-turrax then a potter glass/glass homogenizer in 7 volumes by weight of buffer A containing a protease inhibitor cocktail (20 mM Tris-HCl, 0.25 M saccharose, 2 mM magnesium acetate, 1 mM dithiothreitol, 5 mM EGTA, 2000 U/ml aprotinin, 10 mg/l leupeptin and 10 mg/l soya trypsic inhibitor). The homogenizate was centrifuged at 105,000 g for 1 hour. The supernatant was loaded on a DEAE-Sephacel column (15×1.6 cm) pre-equilibrated with buffer B (buffer A without the saccharose, EGTA and protease inhibitors). The column was washed until there was no detectable absorption at 280 nm, then eluted with a linear gradient of NaCl (0-0.5 M) in buffer B. 3-ml fractions were collected and enzyme activity was determined under the conditions described hereinbelow to localize the different enzymes PDE1, PDE3, PDE4 and PDE5 which were aliquoted and frozen at −80° C. (Lugnier et al., Biochem. Phamacol., 1986, 35: 1746-1751). […]
Cyclic nucleotide phosphodiesterase activity was determined by a radioenzymatic method using tritium-labelled cyclic GMP or AMP (1 μM) as substrate (Lugnier et al., 1986). ^3H-labelled adenosine or guanosine monophosphate formed by hydrolysis of the radiolabelled cyclic nucleotide was then converted to ^3H-labelled adenosine or guanosine in a second reaction with one nucleotidase in excess. […] Nucleoside radioactivity was determined by liquid scintillation counting. […]
The activity of the compounds was evaluated on other phosphodiesterase isoforms, particularly basal state or calmodulin-activated PDE1 from vascular smooth muscle, PDE3, PDE4 and PDE5 from vascular smooth muscle. The results obtained are presented in Tables 1 and 2 hereinbelow and are expressed as the percentage inhibition of enzymatic activity produced by […] of the test compound.

[4] = molecular target: T3, 5-HT transporter (Homo sapiens, UniProt P31645); test: Serotonergic transporter binding ([3H]imipramine); details: [3H]imipramine 2 nM, HEK-293 recombinant, read-out: percentage inhibition at 10 μM of control specific binding to the serotonergic transporter
T3 construct: expressed in transfected cells; host or cells: HEK-293
Experimental: The serotonergic 5-HT transporter was isolated from human recombinant HEK-293 cells according to the method described by Tatsumi et al. (1997), Pharmacological profile of antidepressants and related compounds at human monoamine transporters, Eur. J. Pharmacol., 340: 249-258.
Serotonergic transporter binding was determined by a radioligand method using tritium-labelled imipramine (2 nM) as substrate (Tatsumi et al., 1999). Ligand radioactivity was determined by liquid scintillation counting. Ligand incubations were carried out for thirty minutes at 22° C. The experiment was conducted in duplicate.
as §2, with “serotonergic transporter” for “sigma receptors”, “3” for “4”

T3 sequence (P31645 whole entry): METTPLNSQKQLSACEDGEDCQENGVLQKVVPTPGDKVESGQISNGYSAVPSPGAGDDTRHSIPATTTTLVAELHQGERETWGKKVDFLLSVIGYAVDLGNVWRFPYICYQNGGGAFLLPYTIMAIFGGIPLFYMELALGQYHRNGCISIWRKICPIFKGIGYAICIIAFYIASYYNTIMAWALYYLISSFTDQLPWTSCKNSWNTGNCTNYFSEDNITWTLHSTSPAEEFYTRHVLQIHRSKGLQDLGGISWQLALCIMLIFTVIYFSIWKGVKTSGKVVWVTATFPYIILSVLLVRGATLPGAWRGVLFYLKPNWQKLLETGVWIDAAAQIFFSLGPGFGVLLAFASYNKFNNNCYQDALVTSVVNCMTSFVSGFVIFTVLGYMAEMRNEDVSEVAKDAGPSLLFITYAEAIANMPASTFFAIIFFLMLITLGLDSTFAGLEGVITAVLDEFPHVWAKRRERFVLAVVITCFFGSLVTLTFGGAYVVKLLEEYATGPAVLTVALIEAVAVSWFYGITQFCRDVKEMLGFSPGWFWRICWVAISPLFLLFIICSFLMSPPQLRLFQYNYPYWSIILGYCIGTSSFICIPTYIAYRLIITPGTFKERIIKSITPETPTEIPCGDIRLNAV

Structure (SMILES): COc1cc2c(c(OC)c1-c1ccccc1)C(c1cccc(C(N)=O)c1)=NCC(=O)N2C [Compound 17, 3-(6,8-Dimethoxy-1-methyl-2-oxo-7-phenyl-2,3-dihydro-1H-benzo[e][1,4]diazepin-5-yl)-benzamide]
- σ (non-selective) percentage inhibition at 0.1 μM ([1]; 0.1 μM): 1%
- σ (non-selective) percentage inhibition at 1 μM ([1]; 1 μM): 57%
- σ (non-selective) percentage inhibition at 10 μM ([1]; 10 μM): 100%
- inhibition at 10 µM [2]: 93%
- inhibition at 10 µM ([3]; 10 μM compound, read-out: PDE5 percentage inhibition at 10 μM): 22%
- IC50 ([3]; value in square brackets): 42 µM
- inhibition at 10 µM [4]: 98%
